Experiments:
[1] = tested on: Douglas-fir zygotic embryos; assay: Initiation frequency of embryogenic cultures from Douglas-fir zygotic embryos; format: cell-based; settings: 1.0 ppm in media #121 (Media 1323); 8-9 weeks, dark; control 16.4
Description: Four Douglas-fir cone collections with zygotic embryos at stages 2-4 were chosen. Cones were supplied by The Timber Co. from Cottage Grove, Oregon. Seeds were removed from their cones, soaked in running water for 10 min., and agitated in 10% liquinox containing 1.1 ml/l Tween 20 for an additional 10 min. The seeds were then rinsed with running tap water for 30 min. Seeds were transferred into a laminar flow hood where they were sterilized by agitating in 20% H2O2 for 10 min. Seeds were rinsed in sterilized water for 5 cycles of 5 to 10 min. each. The sterile seeds were placed into a sterile petri dish and dissected. The dissection was performed by splitting the ovule, gently removing the dominant embryo while leaving the suspensor intact, and placing both the embryo and the connected female gametophyte on the test medium. Test medium #1323 is the same as control media #121 but contains 1.0 ppm paclobutrazol. 2 ml of the appropriate medium was poured into multi-well plates sufficient for 10 replications per cone collection. The plates were incubated in the dark for 8-9 weeks at 24-26° C. […] Four Douglas-fir cone collections with zygotic embryos at stages 2-4 were chosen. […] The initiation frequency for the four cone collections with the addition of salts, paclobutrazol, and brassinolide enclosed in a nylon bag was determined to be 38.6%. […]

[2] = Media pH during Loblolly pine embryogenic culture growth; format: physicochemical
Description: The pH of media containing four different concentrations of MES was compared to that of a non-buffered control media during eight weeks of embryogenic culture growth. Maintenance cultures were established on treatment media using single isolated somatic embryos. Maintenance cultures were prepared and cultured essentially as described in Example 5.
The control media was #1043. (See Table 21). The treatment media consisted of #1043 supplemented with 250, 500, 1000 and 1500 mg/l MES. Media pH was adjusted to 5.7 within all treatments prior to autoclaving, pouring and solidification. Immediately after pouring the media, and thereafter at two week intervals, media pH was measured up to the eighth week of culture growth. At each sampling time, four cultures from each media-genotype treatment were destructively sampled to measure the pH of the media directly underlying the growing embryogenic tissue.

[3] = tested on: Norway Spruce embryo and female gametophyte; assay: Initiation frequency of embryogenic cultures from Norway Spruce seed embryos; format: cell-based; settings: base media #56; MES 0.25 gm/l (Media 1362); vitamins 0.05 ppm biotin + 0.5 ppm folic acid (Media 1363); nine weeks, light; control 38.5
Description: Mature Norway Spruce seeds were soaked in running water for 1 hour at room temperature and then stored in water for 24 hours in a refrigerator at 4° C. The seeds were sterilized by agitation in 10% liquinox containing 1.1 ml/l Tween 20 for 10 minutes followed by a 30 minute rinse with running tap water. In a sterile laminar flow hood, the rinsed seeds were agitated in 20% H2O2 for 10 min., then again rinsed with sterile deionized water for 5 cycles of 5 to 10 min. each. The sterile Norway Spruce seeds were placed into petri dishes onto sterile moistened filter paper for dissection. Seeds were opened and the female gametophyte removed. The female gametophyte was placed on its side and further opened. The embryo was removed from the gametophyte and placed onto a test medium next to the female gametophyte. Petri dishes containing the embryo and gametophyte were covered and wrapped with Parafilm® and incubated in light at 23-24° C. for nine weeks. The control-medium used for Norway Spruce was media #56. Refer to Table 21 for a detailed listing of media components. The three test media contained combinations of buffering reagent MES and/or vitamins. […] Initiation frequency was determined to be 38.5% for the control media, while the frequency on the control medium with the addition of 0.33 ppm paclobutrazol averaged roughly 48.5%. […]

Compound: CC(C)(C)[C@@H](O)[C@@H](Cc1ccc(Cl)cc1)n1cncn1 (racemic) [paclobutrazol]
- Initiation Frequency (%) [1]: 24.4%

Compound: O=S(=O)(O)CCN1CCOCC1 [MES, 2-(N-morpholino)-ethanesulfonic acid]
- Media pH ([2]; 250 mg/l in media #1043, 0 weeks): 5.55
- Media pH ([2]; 250 mg/l in media #1043, 2 weeks): 5.43
- Media pH ([2]; 250 mg/l in media #1043, 4 weeks): 4.69
- Media pH ([2]; 250 mg/l in media #1043, 6 weeks): 4.68
- Media pH ([2]; 250 mg/l in media #1043, 8 weeks): 4.72
- Media pH ([2]; 500 mg/l in media #1043, 0 weeks): 5.63
- Media pH ([2]; 500 mg/l in media #1043, 2 weeks): 5.50
- Media pH ([2]; 500 mg/l in media #1043, 4 weeks): 4.78
- Media pH ([2]; 500 mg/l in media #1043, 6 weeks): 4.77
- Media pH ([2]; 500 mg/l in media #1043, 8 weeks): 4.54
- Media pH ([2]; 1000 mg/l in media #1043, 0 weeks): 5.67
- Media pH ([2]; 1000 mg/l in media #1043, 2 weeks): 5.57
- Media pH ([2]; 1000 mg/l in media #1043, 4 weeks): 5.38
- Media pH ([2]; 1000 mg/l in media #1043, 6 weeks): 4.70
- Media pH ([2]; 1000 mg/l in media #1043, 8 weeks): 4.89
- Media pH ([2]; 1500 mg/l in media #1043, 0 weeks): 5.67
- Media pH ([2]; 1500 mg/l in media #1043, 2 weeks): 5.59
- Media pH ([2]; 1500 mg/l in media #1043, 4 weeks): 5.59
- Media pH ([2]; 1500 mg/l in media #1043, 6 weeks): 4.91
- Media pH ([2]; 1500 mg/l in media #1043, 8 weeks): 5.18
- Initiation Frequency (%) [3]: 40.2%

Reference: US20060051868A1, “Methods for increasing conifer somatic embryo initiation, capture, and multiplication” (priority 2001, published 2006)
